# Assay results: publication PMC6328891, “Synthetic bovine lactoferrin peptide Lfampin kills Entamoeba histolytica trophozoites by necrosis and resolves amoebic intracecal infection in mice” (Bioscience Reports, 2019)
# pIC50: −log10 of the molar value. Like-named read-outs stand apart in the source and are kept apart here. Ends that are not written are not given here.
# How the values were obtained:
# E. histolytica = conditions: 20 mg/kg orally daily for 7 days, murine model, cited from earlier work
# Excerpt: Intestinal parasite infections, including amoebiasis, remain the main causes of morbidity and mortality in developing countries. In Mexico, amoebiasis is included in the list of the 20 most frequent communicable diseases, as the numbers of new cases of intestinal and hepatic amoebiasis in 2016 were approximately 220000 and 560, respectively, according to the Secretary of Health (http://www.epidemiologia.salud.gob.mx/anuario/2016/morbilidad/nacional/distribucion_casos_nuevos_enfermedad_fuente_notificacion.pdf). Treatment with metronidazole and other nitro-imidazole derivatives remains the ... || Finally, our results regarding the high efficiency of the peptides at resolving murine intestinal amoebiasis opens the possibility of using them as potential new compounds for the treatment of the disease, either alone or in combination with metronidazole. This would reduce the concentration of the drug needed to resolve an amoebic infection and, in turn, reduce the adverse effects of the drug and the potential development of resistance in the parasite. The mechanism by which the peptides controlled intestinal infection by amoebas in mice remains unknown. The higher efficiency of Lfampin, whic ...
# [1] = system: E. histolytica HM1:IMSS trophozoites; format: cell-based, Entamoeba histolytica; conditions: MTT, 24 h
# Method: Axenic E. histolytica HM1:IMSS trophozoites were maintained in TYI-S-33 medium supplemented with 15% adult bovine serum (Microlab) and 3% Diamond vitamin stock solution 40× (Sigma-Aldrich) under anaerobic conditions at 37°C for 72 h. Virulence of trophozoites was maintained through successive passages into hamster liver, followed by recovery of parasites from the induced amoebic liver abscesses. Trophozoites grown for 72 h (log-phase) were harvested by ice-chilling for 5 min and centrifugation at 150 g for 5 min at 4°C.
# Trophozoites were harvested from cultures after 72 h, as mentioned above, and were seeded in 96-well culture plates at 2 × 10^4 trophozoites in 200 μl of fresh TYI-S-33 medium. […] The plates were incubated for 24 h at 37°C and viability was determined using 3-[4,5-dimethylthiazol-2-yl]-2,5-diphenyltetrazolium bromide (MTT). […] Finally, the absorbance at 595 nm was measured within 15 min, using a plate reader Multiskan FC (Thermo Scientific). A MTT calibration curve was previously calculated using amoeba densities of between 1 × 10^3 and 1 × 10^5 parasites/well. […] The total number of parasites after treatments was also determined following the same methodology, but adding to the wells only 250 µM of the peptides separately and incubating for 24 h at 37°C. Amoebas were harvested by ice chilling for 5 min and counted on a hemocytometer using a Nikon TMS inverted microscope.
Substance,intestinal infection resolved (E. histolytica),intestinal infection resolved (E. histolytica; listed as native Lf) [%],"pIC50 ([1]; 37°C, estimated (Supplementary Figure S1))",trophozoites killed ([1]; doses higher than 100 μM) [%]
lactoferrin,up to 63%,63,–,–
DLIWKLLSKAQEKFGKNKSR [Lfampin],–,–,3.66,80
